This data set in a line: Magnitude of colour change (light absorbance) dry vs damp for colour-formers dip-coated on MDI and TDI HPU foam (Example 25). The conditions noted are these: for Enhancement: light absorbance damp versus dry.

Procedure: A range of colour-formers were dip-coated onto MDI- and TDI-based HPU foams using the following method:
A solution of colour-former in acetone (5 mg/ml) was prepared. A 20×20×5 mm square sample of a TDI-based or MDI-based HPU foam was fully immersed in the colour-former solution (20 ml), taking care to avoid air-locking within the foam. The sample was immediately removed from the solution and excess solution removed with light squeezing followed by hand compression between layers of absorbent tissue.
The sample was oven dried at 70° C. for 10 minutes, resulting in an off-white sample in all cases.
The light absorbance of the resulting samples was recorded in the dry state at the wavelength of maximum light absorbance (when moistened). Each sample was individually fully wet out in deionised water and dried to dampness between absorbent tissue prior to immediate determination of light absorbance at the aforementioned wavelength.

Turning to `CN(C)c1ccc(C2(c3ccc(N(C)C)cc3)OC(=O)c3cc(N(C)C)ccc32)cc1` [Crystal Violet Lactone, crystal violet lactone], the Enhancement amounted to 13.4 (MDI HPU foam) and 14.8 (TDI HPU foam).

For `CCN(CC)c1ccc(-c2nc(Oc3ccc(C(C)(C)c4ccc(Oc5nc(-c6ccc(N(CC)CC)cc6)nc6ccccc56)cc4)cc3)c3ccccc3n2)cc1` [Pergascript Yellow I 3R, 4,4′-[(1-methylethylidene)bis(4,1-phenyleneoxy-4,2-quinazolinediyl)]bis[N,N-diethyl]benzamine], the Enhancement turned out to be 1.1 (MDI HPU foam) and 0.7 (TDI HPU foam). Besides, the “suitability to function as colour-forming indicator” value (on MDI or TDI HPU foams at the loading concentrations employed, damp absorbance versus 0.1 absorbance unit visibility limit) is on record as “not well-suited”.

For `CCN(CC)c1ccc2c(c1)Oc1ccc(N(Cc3ccccc3)Cc3ccccc3)cc1C21OC(=O)c2ccccc21` (stereo not drawn) [WinCon Green, 2-dibenzylamino-6-diethylaminofluoran], the Enhancement (MDI HPU foam) came to 5.7 and the Enhancement (TDI HPU foam) worked out at 7.0.

`CCN(CC)c1ccc2c(c1)Oc1cc(C)c(Nc3ccccc3)cc1C21OC(=O)c2ccccc21` (stereo not drawn) [WinCon-1, 6-diethylamino-3-methyl-2-phenylaminofluoran]: the Enhancement is, setting by setting: (MDI HPU foam) 6.2; (TDI HPU foam) 6.8.

As to `CCCCN(CCCC)c1ccc2c(c1)Oc1cc(C)c(Nc3ccccc3)cc1C21OC(=O)c2ccccc21` (stereo not drawn) [WinCon-2, 6-dibutylamino-3-methyl-2-phenylaminofluoran], the Enhancement (MDI HPU foam) is given as 5.7 and the Enhancement (TDI HPU foam) was 8.1.

Take `CCN(CC)c1ccc2c(c1)Oc1cc(C)c(Nc3ccc(C)cc3C)cc1C21OC(=O)c2ccccc21` (stereo not drawn) [WinCon-15, 2-(2,4-dimethylphenylamino)-3-methyl-6-diethylaminofluoran]: the Enhancement (MDI HPU foam) is on record as 6.8 and the Enhancement (TDI HPU foam) was 9.3.

With `CCN(CCC(C)C)c1ccc2c(c1)Oc1cc(C)c(Nc3ccccc3)cc1C21OC(=O)c2ccccc21` (stereo not drawn) [WinCon-205, 6-(N-ethyl, N-isopentylamino)-3-methyl-2-phenylaminofluoran], the Enhancement (MDI HPU foam) is 6.3 and the Enhancement (TDI HPU foam) turned out to be 10.3.

Values taken from patent US9504421B2, “Moisture indicating hydrophilic polyurethane” (ACTIVE DEVICE DEVELOPMENT LIMITED, priority 2012, dated 2016).
